Converted amounts (≈) assume the structure as drawn.
Columns and labels:
[1] = test system: Escherichia coli; test: in vitro antibacterial evaluation, MIC by broth dilution; type: cell-based; conditions: 18 hours at 35° C.; for MIC Escherichia coli (GC 4560): strain GC 4560
Summary of the method: (§1)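 Broth dilution per NCCLS M7-A2 in Mueller-Hinton II medium, inoculum 5×10^5 CFU/mL, antibiotic range 64-0.06 μg/mL. MIC taken as lowest concentration inhibiting growth; Gram-positive panel includes recent clinical isolates resistant to methicillin, penicillin and/or vancomycin.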

[2] = test system: Enterococcus sp.; test: as above; type: cell-based; conditions: broth dilution, 18 hours at 35° C.
Summary of the method: as §1

[3] = test system: Staphylococcus sp.; test: as above; type: cell-based; conditions: broth dilution, 18 hours at 35° C.
Summary of the method: as §1

[4] = test system: Streptococcus sp.; test: as above; type: cell-based; conditions: broth dilution, 18 hours at 35° C.
Summary of the method: as §1

[5] = anatomic pathology (histopathology of heart and kidney) in mice; type: in vivo; conditions: CD-1 mice, 20 mg/kg intravenously daily for 9 days, necropsy day 10, microscopic histopathology
Description: Samples of tissues from necropsied mice were formalin-fixed, paraffin-embedded, sectioned, stained with hematoxylin and eosin, and examined microscopically. Histopathologic findings were recorded. These findings were subjectively graded on a scale corresponding to slight, mild, moderate, marked and severe as compared to untreated controls.

[6] = test system: Streptococcus pneumoniae (GC 1894); test: acute lethal infection in mice; type: in vivo; conditions: female CD-1 mice, intraperitoneal challenge, intravenous 30 min. after infection, 7 day survival
Summary of the method: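 ED50 from 7 day survival ratios pooled over 3 separate tests. Female CD-1 mice, 20+/−2 gm, ip bacterial challenge (trypticase soy broth or hog gastric mucin) lethal to untreated controls in 24-48 hr; iv dosing 30 min after infection in saline or 5% dextrose, n=5/dose.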

Structure (SMILES): N=C1NCC(C(O)C2NC(=O)C(Cc3ccc(OC4OC(CO)C(OC5OC6COC7(OC6C(O)C5O)C5CC6CC(C5)CC7C6)C(O)C4O)cc3)NC(=O)C(CC3CCCCC3)NC(=O)CNC(=O)C(CO)NC(=O)C(C(O)C3CNC(=N)N3C3OC(CO)C(O)C(O)C3O)NC2=O)N1 (stereo not drawn) [Example 106, Cyclo[3-cyclohexylalanyl-O-[4-O-[4,6-O-(2-adamantylidene)hexopyranosyl]hexopyranosyl]-tyrosyl-3-(2-iminoimidazolidin-4-yl)seryl-3-(3-hexopyranosyl-2-iminoimidazolidin-4-yl)-serylserylglycyl]]
- MIC Escherichia coli (GC 4560) [1]: 0.5 to 2 µg/mL
- MIC Enterococcus faecalis (ATCC 29212) ([2]; strain ATCC 29212): 0.5 to 2 µg/mL
- MIC Enterococcus faecalis (GC 2242) ([2]; strain GC 2242): 0.5 to 2 µg/mL
- MIC Enterococcus faecium (GC 2243) ([2]; strain GC 2243): 0.5 to 2 µg/mL
- MIC Enterococcus faecalis (GC 2691) ([2]; strain GC 2691): 1 to 2 µg/mL
- MIC Enterococcus faecalis (GC 3059) ([2]; strain GC 3059): 1 to 2 µg/mL
- MIC Enterococcus faecalis (GC 4552) ([2]; strain GC 4552): 1 to 2 µg/mL
- MIC Enterococcus faecalis (GC 4553) ([2]; strain GC 4553): 1 to 2 µg/mL
- MIC Enterococcus faecalis (GC 4554) ([2]; strain GC 4554): 1 to 2 µg/mL
- MIC Enterococcus faecium (GC 4556) ([2]; strain GC 4556): 0.5 to 2 µg/mL
- MIC Enterococcus faecium (GC 4557) ([2]; strain GC 4557): 0.5 to 2 µg/mL
- MIC Enterococcus avium (GC 4558) ([2]; strain GC 4558): 1 to 2 µg/mL
- MIC Enterococcus faecalis (GC 6189) ([2]; strain GC 6189): 1 to 2 µg/mL
- MIC Coagulase Negative Staphylococcus (GC 4547) [3]: 0.5 to 2 µg/mL
- MIC Coagulase Negative Staphylococcus (GC 4548) [3]: 0.25 to 1 µg/mL
- MIC Coagulase Negative Staphylococcus (GC 4549) [3]: <0.12 to 1 µg/mL
- MIC Coagulase Negative Staphylococcus (GC 4551) [3]: 0.25 to 1 µg/mL
- MIC Coagulase Negative Staphylococcus (GC 6257) [3]: 0.25 µg/mL (≈ 0.176 µM)
- MIC Staphylococcus aureus (ATCC 29213) [3]: 0.5 to 2 µg/mL
- MIC Staphylococcus aureus (GC 1131) [3]: 0.5 to 2 µg/mL
- MIC Staphylococcus aureus (GC 3051) [3]: 0.5 to 2 µg/mL
- MIC Staphylococcus aureus (GC 3053) [3]: 0.5 to 2 µg/mL
- MIC Staphylococcus aureus (GC 4541) [3]: 0.5 to 2 µg/mL
- MIC Staphylococcus aureus (GC 4542) [3]: 0.25 to 1 µg/mL
- MIC Staphylococcus aureus (GC 4544) [3]: 0.25 to 2 µg/mL
- MIC Staphylococcus aureus (GC 4545) [3]: 0.5 to 2 µg/mL
- MIC Staphylococcus aureus-SMITH (GC 4543) [3]: 0.25 to 1 µg/mL
- MIC Staphylococcus haemolyticus (GC 4546) [3]: 0.5 to 1 µg/mL
- MIC Staphylococcus haemolyticus (GC 4546) ([3]; strain GC 4546): 0.5 to 1 µg/mL
- MIC Coagulase Negative Staphylococcus (GC 4547) ([3]; strain GC 4547): 0.5 to 2 µg/mL
- MIC Coagulase Negative Staphylococcus (GC 6257) ([3]; strain GC 6257): 0.25 µg/mL (≈ 0.176 µM)
- MIC Streptococcus pneumoniae (ATCC 6301) ([4]; strain ATCC 6301): <0.03 µg/mL
- MIC Streptococcus pneumoniae (GC 1894) ([4]; strain GC 1894): <0.03 µg/mL
- MIC Streptococcus pyogenes (GC 4563) ([4]; strain GC 4563): <0.03 µg/mL
- MIC Streptococcus agalactiae (GC 4564) ([4]; strain GC 4564): <0.03 µg/mL
- MIC Streptococcus pneumoniae (GC 4565) ([4]; strain GC 4565): <0.03 µg/mL
- Anatomical Pathology (Day 10), Heart [5]: 0
- median effective dose (ED50), Streptococcus pneumoniae (GC 1894) [6]: 0.07 mg/kg

Structure (SMILES): CC(c1ccccc1)C1NC(=O)CNC(=O)C(CO)NC(=O)C(C(O)C2CNC(=N)N2C2OC(CO)C(O)C(O)C2O)NC(=O)C(C(O)C2CNC(=N)N2)NC(=O)C(Cc2ccc(OC3OC(CO)C(OC4OC5COC(C6CCCCC6)OC5C(O)C4O)C(O)C3O)cc2)NC1=O (stereo not drawn) [Example 112, Cyclo[glycyl-β-methylphenylalanyl-O-[4-O-[4,6-O-(cyclohexylmethylene)hexopyranosyl]-hexopyranosyl]tyrosyl-3-(2-iminoimidazolidin-4-yl)seryl-3-(3-hexopyranosyl-2-iminoimidazolidin-4-yl)serylseryl]]
- MIC Escherichia coli (ATCC 25922) ([1]; strain ATCC 25922): 32 µg/mL (≈ 23 µM)
- MIC Escherichia coli (GC 4559) ([1]; strain GC 4559): >16 µg/mL
- MIC Escherichia coli (GC 4560) [1]: 1 µg/mL (≈ 0.72 µM)
- MIC Enterococcus avium (GC 4558) ([2]; Enterococcus avium (GC 4558)): 2 µg/mL (≈ 1.44 µM)
- MIC Enterococcus faecalis (ATCC 29212) ([2]; Enterococcus faecalis (ATCC 29212)): 2 µg/mL (≈ 1.44 µM)
- MIC Enterococcus faecalis (GC 2242) ([2]; Enterococcus faecalis (GC 2242)): 1 to 2 µg/mL
- MIC Enterococcus faecalis (GC 2691) ([2]; Enterococcus faecalis (GC 2691)): 2 µg/mL (≈ 1.44 µM)
- MIC Enterococcus faecalis (GC 3059) ([2]; Enterococcus faecalis (GC 3059)): 2 µg/mL (≈ 1.44 µM)
- MIC Enterococcus faecalis (GC 4552) ([2]; Enterococcus faecalis (GC 4552)): 2 µg/mL (≈ 1.44 µM)
- MIC Enterococcus faecalis (GC 4553) ([2]; Enterococcus faecalis (GC 4553)): 2 to 4 µg/mL
- MIC Enterococcus faecalis (GC 4554) ([2]; Enterococcus faecalis (GC 4554)): 2 µg/mL (≈ 1.44 µM)
- MIC Enterococcus faecalis (GC 6189) ([2]; Enterococcus faecalis (GC 6189)): 2 µg/mL (≈ 1.44 µM)
- MIC Enterococcus faecium (GC 2243) ([2]; Enterococcus faecium (GC 2243)): 1 to 2 µg/mL
- MIC Enterococcus faecium (GC 4556) ([2]; Enterococcus faecium (GC 4556)): 2 µg/mL (≈ 1.44 µM)
- MIC Enterococcus faecium (GC 4557) ([2]; Enterococcus faecium (GC 4557)): 0.5 to 2 µg/mL
- MIC Enterococcus faecalis (ATCC 29212) ([2]; strain ATCC 29212): 2 µg/mL (≈ 1.44 µM)
- MIC Enterococcus faecalis (GC 2242) ([2]; strain GC 2242): 1 to 2 µg/mL
- MIC Enterococcus faecium (GC 2243) ([2]; strain GC 2243): 1 to 2 µg/mL
- MIC Enterococcus faecalis (GC 2691) ([2]; strain GC 2691): 2 µg/mL (≈ 1.44 µM)
- MIC Enterococcus faecalis (GC 3059) ([2]; strain GC 3059): 2 µg/mL (≈ 1.44 µM)
- MIC Enterococcus faecalis (GC 4552) ([2]; strain GC 4552): 2 µg/mL (≈ 1.44 µM)
- MIC Enterococcus faecalis (GC 4553) ([2]; strain GC 4553): 2 to 4 µg/mL
- MIC Enterococcus faecalis (GC 4554) ([2]; strain GC 4554): 2 µg/mL (≈ 1.44 µM)
- MIC Enterococcus faecium (GC 4556) ([2]; strain GC 4556): 2 µg/mL (≈ 1.44 µM)
- MIC Enterococcus faecium (GC 4557) ([2]; strain GC 4557): 0.5 to 2 µg/mL
- MIC Enterococcus avium (GC 4558) ([2]; strain GC 4558): 2 µg/mL (≈ 1.44 µM)
- MIC Enterococcus faecalis (GC 6189) ([2]; strain GC 6189): 2 µg/mL (≈ 1.44 µM)
- MIC Coagulase Negative Staphylococcus (GC 4547) [3]: 0.5 to 1 µg/mL
- MIC Coagulase Negative Staphylococcus (GC 4548) [3]: 0.5 to 1 µg/mL
- MIC Coagulase Negative Staphylococcus (GC 4549) [3]: 0.5 to 1 µg/mL
- MIC Coagulase Negative Staphylococcus (GC 4551) [3]: 0.5 to 1 µg/mL
- MIC Coagulase Negative Staphylococcus (GC 6257) [3]: 1 µg/mL (≈ 0.72 µM)
- MIC Coagulase Negative Staphylococcus (ID-3941) [3]: 0.5 µg/mL (≈ 0.36 µM)
- MIC Staphylococcus aureus (ATCC 29213) [3]: 1 µg/mL (≈ 0.72 µM)
- MIC Staphylococcus aureus (GC 1131) [3]: 0.5 to 1 µg/mL
- MIC Staphylococcus aureus (GC 4541) [3]: 1 µg/mL (≈ 0.72 µM)
- MIC Staphylococcus aureus (GC 4542) [3]: 1 µg/mL (≈ 0.72 µM)
- MIC Staphylococcus aureus (GC 4544) [3]: 0.5 to 2 µg/mL
- MIC Staphylococcus aureus (GC 4545) [3]: 1 to 2 µg/mL
- MIC Staphylococcus aureus-SMITH (GC 4543) [3]: 0.5 to 1 µg/mL
- MIC Staphylococcus haemolyticus (GC 4546) [3]: 1 µg/mL (≈ 0.72 µM)
- MIC Staphylococcus aureus (GC 1131) ([3]; inoculum 5×10^5 CFU/mL, strain GC 1131): 0.5 to 1 µg/mL
- MIC Staphylococcus aureus (ATCC 29213) ([3]; strain ATCC 29213): 1 µg/mL (≈ 0.72 µM)
- MIC Staphylococcus aureus (GC 4541) ([3]; strain GC 4541): 1 µg/mL (≈ 0.72 µM)
- MIC Staphylococcus aureus (GC 4542) ([3]; strain GC 4542): 1 µg/mL (≈ 0.72 µM)
- MIC Staphylococcus aureus (GC 4544) ([3]; strain GC 4544): 0.5 to 2 µg/mL
- MIC Staphylococcus aureus (GC 4545) ([3]; strain GC 4545): 1 to 2 µg/mL
- MIC Staphylococcus haemolyticus (GC 4546) ([3]; strain GC 4546): 1 µg/mL (≈ 0.72 µM)
- MIC Coagulase Negative Staphylococcus (GC 4547) ([3]; strain GC 4547): 0.5 to 1 µg/mL
- MIC Coagulase Negative Staphylococcus (GC 4548) ([3]; strain GC 4548): 0.5 to 1 µg/mL
- MIC Coagulase Negative Staphylococcus (GC 4549) ([3]; strain GC 4549): 0.5 to 1 µg/mL
- MIC Coagulase Negative Staphylococcus (GC 4551) ([3]; strain GC 4551): 0.5 to 1 µg/mL
- MIC Coagulase Negative Staphylococcus (GC 6257) ([3]; strain GC 6257): 1 µg/mL (≈ 0.72 µM)
- MIC Coagulase Negative Staphylococcus (ID-3941) ([3]; strain ID-3941): 0.5 µg/mL (≈ 0.36 µM)
- MIC Staphylococcus aureus-SMITH (GC 4543) ([3]; strain SMITH GC 4543): 0.5 to 1 µg/mL
- MIC Streptococcus agalactiae (GC 4564) ([4]; Streptococcus agalactiae (GC 4564)): <0.12 µg/mL
- MIC Streptococcus pneumoniae (GC 4565) ([4]; Streptococcus pneumoniae (GC 4565)): <0.12 µg/mL
- MIC Streptococcus pyogenes (GC 4563) ([4]; Streptococcus pyogenes (GC 4563)): <0.12 µg/mL
- MIC Streptococcus pyogenes (ID-3187) ([4]; Streptococcus pyogenes (ID-3187)): 0.5 µg/mL (≈ 0.36 µM)
- MIC Streptococcus pyogenes (GC 4563) ([4]; strain GC 4563): <0.12 µg/mL
- MIC Streptococcus agalactiae (GC 4564) ([4]; strain GC 4564): <0.12 µg/mL
- MIC Streptococcus pneumoniae (GC 4565) ([4]; strain GC 4565): <0.12 µg/mL
- MIC Streptococcus pyogenes (ID-3187) ([4]; strain ID-3187): 0.5 µg/mL (≈ 0.36 µM)
- median effective dose (ED50), Streptococcus pneumoniae (GC 1894) [6]: 0.02 mg/kg

Source: patent publication US6914045B2, “Glycopeptide antibiotics” (Wyeth Holdings Corporation, priority 2001, dated 2005)
